This is an account of results in patent US7659296B2, “Vitamin D receptor modulators” (Eli Lilly and Company, priority 2004, dated 2010).

Holding throughout (type): cell-based
One experiment addresses T1, RXR-VDR heterodimer (Homo sapiens, UniProt P11473).
T1 construct: add the Gal-4-RXR-DEF and VP16-VDR-LBD; expressed in transfected cells; host or cells: SaOS-2 cells
T1 sequence (P11473 127-423 limits assumed): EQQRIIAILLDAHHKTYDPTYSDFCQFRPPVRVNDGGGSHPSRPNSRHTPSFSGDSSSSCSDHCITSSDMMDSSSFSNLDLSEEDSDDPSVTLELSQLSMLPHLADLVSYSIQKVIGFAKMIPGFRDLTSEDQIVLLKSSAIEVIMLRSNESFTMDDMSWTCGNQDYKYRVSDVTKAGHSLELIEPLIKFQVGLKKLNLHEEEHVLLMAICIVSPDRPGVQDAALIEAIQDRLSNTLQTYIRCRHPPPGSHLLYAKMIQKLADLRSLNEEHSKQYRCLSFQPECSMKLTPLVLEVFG
T1 sequence (P19793 201-462 partner limits assumed): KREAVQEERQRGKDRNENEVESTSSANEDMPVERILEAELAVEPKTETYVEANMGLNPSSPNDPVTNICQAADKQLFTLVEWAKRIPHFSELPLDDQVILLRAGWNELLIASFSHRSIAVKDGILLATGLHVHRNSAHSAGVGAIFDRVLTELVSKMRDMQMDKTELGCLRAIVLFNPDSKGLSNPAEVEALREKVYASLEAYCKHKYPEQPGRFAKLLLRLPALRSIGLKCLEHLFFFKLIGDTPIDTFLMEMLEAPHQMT
Description: RXR-VDR heterodimerization (SaOS-2 cells) test. The settings on record: Gal-4-RXR-DEF and VP16-VDR-LBD, luciferase reporter. The procedure:
1. The RXR-VDR heterodimerAssay:
This assay provides the VDR activity of a test compound. It is desirable to have low EC50 values for a compound in this assay. […] Desired assay results are EC50 values less than or equal to 600 nM. Preferred assay results are less than 250 nM, and most preferably less than 150 nM.
(1) Materials and Method for RXR-VDR Heterodimerization Assay Transfection Method: Reagents: FuGENE 6 Transfection Reagent (Roche Cat # 1 814 443); Growth Media: D-MEM High Glucose (Gibco BRL Cat # 11054-020), 10% heat inactivated FBS (Gibco BRL Cat # 10092-147), 1% antibiotic-antimycotic (Ab-Am); (Gibco BRL Cat # 15240-062). Cells: Grow SaOS-2 cells in T-150 cm^2 culture flasks in growth media keeping the density at 5-6×10^5 cells/ml. Passage cells 1:3 twice a week. Add Trypsin EDTA (Gibco BRL Cat # 25300-020) and incubate. Resuspend cells in plating media and transfer into growth media. Wash Media: HBSS Low Glucose Without Phenol Red (Gibco BRL Cat # 14175-095), 1% Ab-Am. Plating Media: D-MEM Low Glucose Without Phenol Red (Gibco BRL Cat # 11054-020), 1% Ab-Am; D-MEM; 10% Stripped FBS (Hyclone Cat# SH30068.03 Lot # AHM9371). Transfection/Treatment Media: D-MEM Low Glucose Without Phenol Red only; T-150 cm^2 culture flask: Use Corning Coastar T-150 cm^2 culture flask (Cat #430825) to grow the cells. Luciferase Assay Reagent: Use Steady-Glo Luciferase Reagent from Promega (Cat # E2550) Consists of: E2533 Assay Substrate, lypholized product and E2543 Assay Buffer. Thaw at room temperature and store. Cell Harvesting/Count: Aspirate media from culture flask, rinse cells with HBSS and aspirate. Add trypsin and incubate. When cells appear detached, resuspend cells in growth media. Transfer into a new flask with fresh growth media for passaging the cells. Plate 96 well plates and two extra plates. Mix the cell suspension using pipette. To count the cells using a Hematocytometer. Plate seeding: Use plating media 10% Stripped FBS in D-MEM Low Glucose, without Phenol Red, 1% Ab-Am. Plate 14 plates @ 165 μl/well. In sterile flask add cell suspension to plating media and mix. Add cells/well. Place the cells in the incubator. Cells should be about 75% confluent prior to transfection. DAY 2: Transfection: Step 1, DNA and Media: Add plain DMEM media to tubes for mixing the DNA; add the Reporter gene pFR-LUC; and add the Gal-4-RXR-DEF and VP16-VDR-LBD. Step 2, FuGENE and Media: Prepare plain DMEM media in a tubes for mixing FuGENE, add FuGENE 6 Transfection Reagent, and incubate. Step 3, FuGENE, DNA and Media Complex: Add FuGENE Media complex from step 2 to DNA Media complex from step 1 and incubate. Step 4, FuGENE, DNA and Media Complex to 96 well plate: Add FuGENE-DNA-Media complex from step 3 to each plate. Incubate. Day 3: Dosing: Treatment preparation. Allow for transfection time. Make a stock solution of the compounds in DMSO and vortex until all the compounds have been dissolved. Further dilute in D-MEM (Low Glucose—without Phenol Red) Add compounds in quadruplicate to give desired final volume then incubate. Day 4: Luciferase Assay: Read the plates after drug treatment. Remove part of media from all the wells and leave remainder. Add Steady-Glo Luciferase Reagent mixture/wells and incubate. Count each well using a Luminescence counter, Top Count NXT by Packard preferably set a delay between plates to reduce the background.

Experiment [1] deals with KERtr cells (Human skin keratinocyte). Description: Keratinocyte Proliferation Assay. The settings on record: BrdU incorporation, 72 h, read-out: Kera. Prolif. IC50. As to the method:
The Keratinocyte Proliferation Assay
This Assay is indicative for the treatment of psoriasis. An acceptable test result is IC50 value of less than or equal to 300 nM. Preferred assay results are IC50 values of less than 100 nM.
KERtr cells (Human skin keratinocyte) are transformed with a retrovirus vector, obtained from ATCC, then are plated in 96-well flat-bottomed plates (3000 cells/well) in 100 μl keratinocyte serum free medium supplemented with bovine pituitary extract in the absence of EGF (Life Technologies, Rockville, Md.) and are incubated at 37° C. for two days. The cells are treated with various concentrations of VDR ligands (ten-fold serial dilution from 10,000 nM to 0.1 nM in triplicate), dissolved in 100 μl keratinocyte serum free medium supplemented with bovine pituitary extract in the absence of EGF and are incubated at 37° C. for 72 h. BrdU (5-bromo-2′-deoxyuridine) incorporation is analyzed as a measure of DNA replication (Cell proliferation ELISA kit, Roche Diagnostics, Indianapolis, Ind.) and absorbance is measured at 405 nm. Potency values (IC50) values were determined as the concentration (nM) of compound that elicited a half-maximal response.
A general note: Incorporation of labelled thymidine or its analogues reports DNA synthesis.

A further experiment concerns rat osteocalcin promoter. Description: OCN (osteocalcin) Promoter Assay. The settings on record: RG-15 (ROS17/2.8) cells, luciferase reporter, 48 h treatment. The procedure:
The OCN (osteocalcin) Promoter Assay
The OCN Promoter Assay is an indicator and marker for osteoporosis. Desired assay results are EC50 less than or equal to 325 nM. Preferred assay results are less than 50 nM.
The activation of osteocalcin by VDR ligands is evaluated in a rat osteoblast-like cell line RG-15 (ROS17/2.8) stably expressing rat osteocalcin promoter fused with luciferase reporter gene. The stable cell lines are established as reported before (Activation of Osteocalcin Transcription involves interaction of protein kinase A- and Protein kinase C-dependent pathways. Boguslawski, G., Hale, L. V., Yu, X.-P., Miles, R. R., Onyia, J. E., Santerre R. F., Chandrasekhar, S. J. Biol. Chem. 275, 999-1006, 2000). Confluent RG-15 cells maintained in DMEM/F-12 medium (3:1) containing 5% FBS, 300 μg/ml G418 and at 37° C. under 5% CO2/95% air atmosphere are trypsinized (0.25% trypsin) and plated into white opaque 96-well cell culture plates (25000 cells/well). After 24 h, cells (in DMEM/F-12 medium+2% FBS) are treated with various concentrations of compounds, dissolved in DMSO. The final DMSO concentration remains at 0.01% (v/v). After 48 h treatment, the medium is removed, cells are lysed with 50 μl of lysis buffer (From Luciferase reporter assay system, Roche Diagnostics, Indianapolis, Ind.) and then assayed for luciferase activity using the Luciferase Reporter Gene Assay kit from Boehringer Mannheim as per manufacturer's specifications.
(In general: A reporter such as luciferase makes a cellular process visible.)

The structures appear in SMILES notation.

As to `CCC(CC)(c1ccc(OCC(=O)C(C)(C)C)c(C)c1)c1nc2cc(C(N)=O)ccc2o1` [Ex 7, 2-{1-[4-(3,3-Dimethyl-2-oxo-butoxy)-3-methyl-phenyl]-1-ethyl-propyl}-benzooxazole-5-carboxylic acid amide], the EC50 on RXR-VDR heterodimer stood at 177 nM. Besides, in experiment [1], the IC50 is above 1000 nM.
The corresponding values for `CCC(CC)(c1ccc(OCC(=O)C(C)(C)C)c(C)c1)c1nc2cc(C(=O)N(C)C)ccc2o1` [Ex 8, 2-{1-[4-(3,3-Dimethyl-2-oxo-butoxy)-3-methyl-phenyl]-1-ethyl-propyl}-benzooxazole-5-carboxylic acid dimethylamide] are 117 nM and above 1000 nM.
The corresponding values for `CCC(CC)(c1ccc(OCC(=O)C(C)(C)C)c(C)c1)c1nc2cc(C(=O)NCC(=O)O)ccc2o1` [Ex 9, [(2-{1-[4-(3,3-Dimethyl-2-oxo-butoxy)-3-methyl-phenyl]-1-ethyl-propyl}-benzooxazole-5-carbonyl)-amino]-acetic acid] are 150 nM and above 1000 nM.
Consider `CCC(CC)(c1ccc(OCC(=O)C(C)(C)C)c(C)c1)c1nc2ccc(C(=O)O)cc2o1` [Ex. 1, 2-{1-[4-(3,3-dimethyl-2-oxo-butoxy)-3-methyl-phenyl]-1-ethyl-propyl}-benzooxazole-6-carboxylic acid], for which the EC50 at RXR-VDR heterodimer is 1120 nM; in the experiment with rat osteocalcin promoter, 376 nM.
For the compound `CCC(CC)(c1ccc(OCC(=O)C(C)(C)C)c(C)c1)c1nc2ccc(C(N)=O)cc2o1` [Ex. 2, 2-{1-[4-(3,3-Dimethyl-2-oxo-butoxy)-3-methyl-phenyl]-1-ethyl-propyl}-benzooxazole-6-carboxylic acid amide], the EC50 at RXR-VDR heterodimer was found to be 73 nM; in the experiment with rat osteocalcin promoter it was 289 nM. Moreover, in experiment [1], the IC50 is above 1000 nM.
`CCC(CC)(c1ccc(OCC(=O)C(C)(C)C)c(C)c1)c1nc2ccc(C(=O)N(C)C)cc2o1` [Ex. 3, 2-{1-[4-(3,3-Dimethyl-2-oxo-butoxy)-3-methyl-phenyl]-1-ethyl-propyl}-benzooxazole-6-carboxylic acid dimethylamide]: the EC50 stood at 701 nM on RXR-VDR heterodimer and 1640 nM with rat osteocalcin promoter.
As to `CCC(CC)(c1ccc(OCC(=O)C(C)(C)C)c(C)c1)c1nc2ccc(C(=O)NCC(=O)O)cc2o1` [Ex. 4, [(2-{1-[4-(3,3-dimethyl-2-oxo-butoxy)-3-methyl-phenyl]-1-ethyl-propyl}-benzooxazole-6-carbonyl)-amino]-acetic acid], the EC50 at RXR-VDR heterodimer is 700 nM; in the experiment on rat osteocalcin promoter, 1170 nM.
Take `CCC(CC)(c1ccc(OCC(=O)C(C)(C)C)c(C)c1)c1nc2cc(C(=O)O)ccc2o1` [Ex. 5, 2-{1-[4-(3,3-Dimethyl-2-oxo-butoxy)-3-methyl-phenyl]-1-ethyl-propyl}-benzooxazole-5-carboxylic acid]: the EC50 at RXR-VDR heterodimer stood at 37 nM; in the experiment on rat osteocalcin promoter, 8 nM. Also, the IC50 in experiment [1] is above 1000 nM.
`CCC(CC)(c1ccc(OCC(O)C(C)(C)C)c(C)c1)c1nc2cc(C(=O)O)ccc2o1` (centres unmarked) [Ex. 6, 2-{1-Ethyl-1-[4-(2-hydroxy-3,3-dimethyl-butoxy)-3-methyl-phenyl]-propyl}-benzooxazole-5-carboxylic acid] returned an EC50 at RXR-VDR heterodimer of 5 nM. The IC50 in experiment [1] worked out at 36 nM.

Broadly, the EC50 is the concentration at which the effect is half-maximal. A word on the IC50: it is the midpoint of a concentration-inhibition curve.
